Measurements taken from patent publication US12595254B2, “Crystal form of Resmetirom, preparation method therefor, and use thereof” (CRYSTAL PHARMACEUTICAL (SUZHOU) CO., LTD., priority 2020, dated 2026).
Values after ≈ are worked out from the molar mass of the structure shown. “Also recorded” adds a separate entry of the source. Where two headings read alike, the source gives them in different places.

How the values were obtained:
[1] = Physicochemical stability of drug substance on storage (XRPD, HPLC); settings: for Chemical purity during storage / Time for which crystalline state doesn't change / kept stable: open and sealed package
Experimental: An appropriate amount of Form CSVI were stored under different conditions of 25° C./60% RH and 40° C./75% RH. Crystalline form and chemical purity were checked by XRPD and HPLC, respectively.

[2] = Hygroscopicity by dynamic vapor sorption (DVS); assay type: physicochemical; settings: for Weight gain: DVS
Experimental: Dynamic Vapor Sorption (DVS) was measured via an SMS (Surface Measurement Systems Ltd.) intrinsic DVS instrument. The instrument control software is DVS-Intrinsic control software. Typical Parameters for DVS test are as follows: • Temperature: 25° C. • Gas and flow rate: N2, 200 mL/min • RH range: 0% RH to 95% RH
Dynamic vapor sorption (DVS) analyzer was applied to evaluate the hygroscopicity of Form CSVI and Form I in the prior art with an appropriate amount. The weight gains at each relative humidity were recorded in a cycle of 0-95%-0 RH.

Grinding stability = assay type: physicochemical; settings: ground manually in a mortar
Experimental: Solid sample of Form CSVI was ground manually for 5 minutes in a mortar.

[3] = Stability of crystalline form in drug product process; assay type: physicochemical; settings: XRPD, tablet per Tables 11 and 12
Text: The formulation and preparation process of Form CSVI are shown in Table 11 and Table 12, respectively.

[4] = Pressure stability (tableting, XRPD); assay type: physicochemical
Experimental: ENERPAC manual tablet press was used for compression. 20 mg of Form CSVI were compressed into tablets under different pressures with the dies of a 16 mm round tooling. Crystalline form before and after tableting were checked by XRPD.

[5] = Solubility in simulated gastric fluid (SGF), HPLC; assay type: physicochemical
Experimental: When solubility test is used to predict the in vivo performance of a drug, it is critical to simulate in vivo conditions as closely as possible. Simulated gastric fluid (SGF) can be used to simulate the condition in vivo and predict the effects of eating, thus solubility in this medium is closer to that in vivo. 15 mg of Form CSVI was suspended into 2.0 mL of SGF. After equilibrated for 1 h at 37° C., concentrations of the saturated solutions were measured by HPLC.

[6] = Compressibility (tensile strength of compressed tablet); assay type: physicochemical; settings: for Diameter / Hardness / Thickness / Tensile strength: 80 mg compressed at 10 KN; for Diameter / Hardness / Thickness: after 24 h at room temperature; for Tensile strength: T=2H/πDL
Experimental: ENERPAC manual tablet press was used for compression. 80 mg of Form CSVI and Form I in the prior art were weighed and added into the dies of a 16 mm round tooling, compressed at 10 KN manually, then stored at room temperature for 24 h until complete elastic recovery, diameter (D) and thickness (L) were tested with caliper. Hardness (H) was tested with an intelligent tablet hardness tester. Tensile strength of the powder was calculated with the following formula: T=2H/πDL. Under a certain force, the greater the tensile strength, the better the compressibility.

[7] = Flowability (compressibility index); assay type: physicochemical
Experimental: Compressibility index is usually utilized to evaluate the flowability of powder or granules during the drug product process. Compressibility index test method is as follows: a certain amount of powder was added into a measuring cylinder and bulk volume was recorded. Then the powder was tapped to make it in the tightest state and the tapped volume was recorded.
The bulk density (ρ0), tapped density (ρf) were calculated and compressibility index was calculated according to c=(ρf−π0)/ρf.

[8] = Adhesiveness (amount sticking to the punch); assay type: physicochemical; settings: 30 mg, Φ8 mm tooling, 10 KN held for 30 s
Experimental: 30 mg of Form CSVI and Form I in the prior art were weighed and then added into the dies of Φ8 mm round tooling, compressed at 10 KN and held for 30 s. The punch was weighed and amount of material sticking to the punch was calculated. The maximum amount and average amount of material sticking to the punch during the compression were recorded.

CC(C)c1cc(Oc2c(Cl)cc(-n3nc(C#N)c(=O)[nH]c3=O)cc2Cl)n[nH]c1=O [Form CSVI, 2-(3,5-dichloro-4-((5-isopropyl-6-oxo-1,6-dihydropyridazin-3-yl)oxy)phenyl)-3,5-dioxo-2,3,4,5-tetrahydro-1,2,4-triazine-6-carbonitrile]
Purity ([1]; 25° C./60% RH Open, 6 months): 99.73%
Solid Form ([1]; 25° C./60% RH Open, 6 months): Form CSVI
Purity ([1]; 25° C./60% RH Sealed, 6 months): 99.74%
Solid Form ([1]; 25° C./60% RH Sealed, 6 months): Form CSVI
Chemical purity during storage ([1]; 25° C./60% RH): above 99.7%
Time for which crystalline state doesn't change / kept stable ([1]; 25° C./60% RH): at least 6 months
Purity ([1]; 40° C./75% RH Open, 6 months): 99.73%
Solid Form ([1]; 40° C./75% RH Open, 6 months): Form CSVI
Purity ([1]; 40° C./75% RH Sealed, 6 months): 99.73%
Solid Form ([1]; 40° C./75% RH Sealed, 6 months): Form CSVI
Chemical purity during storage ([1]; 40° C./75% RH): above 99.7%
Time for which crystalline state doesn't change / kept stable ([1]; 40° C./75% RH): at least 6 months
Purity ([1]; Initial): 99.73%
Solid Form ([1]; Initial): Form CSVI
Weight gain ([2]; 25° C./80% RH): 0.07%
Crystal form after DVS test ([2]; XRPD before and after DVS): does not change
Hygroscopicity (in words) ([2]; from weight gain at 25° C./80% RH): non or almost non hygroscopic
Grinding stability (in words) (Grinding stability): remained stable; also recorded: doesn't change after grinding
Crystalline form before and after the formulation process [3]: remained stable
Stability under different pressures (in words) ([4]; 3, 7, 14 kN): good stability under different pressures
Solid form after tableting ([4]; Pressure 3 kN): Form CSVI
Solid form after tableting ([4]; Pressure 7 kN): Form CSVI
Solid form after tableting ([4]; Pressure 14 kN): Form CSVI
Solubility of Form CSVI relative to Form I in the prior art ([5]; SGF, 1 h): about 2 times
solubility at 1 h ([5]; simulated gastric fluid (SGF), simulated gastric fluid, thermodynamic from solid, SGF, equilibrated for 1 h at 37° C.): 2.1 µg/mL (≈ 4.83 µM)
Compressibility (in words) [6]: better compressibility
Diameter [6]: 6.06 mm
Hardness [6]: 13.4 N
Thickness [6]: 2.05 mm
Tensile strength [6]: 0.69 MPa
Flowability compared with Form I in the prior art [7]: superior to that of Form I in the prior art
Average amount sticking to the punch [8]: 0.05 mg
Maximum amount sticking to the punch [8]: 0.10 mg

CC(C)c1cc(Oc2c(Cl)cc(-n3nc(C#N)c(=O)[nH]c3=O)cc2Cl)n[nH]c1=O [Form I in the prior art, 2-(3,5-dichloro-4-((5-isopropyl-6-oxo-1,6-dihydropyridazin-3-yl)oxy)phenyl)-3,5-dioxo-2,3,4,5-tetrahydro-1,2,4-triazine-6-carbonitrile, reference compound]
Weight gain of Form I relative to Form CSVI ([2]; 25° C./80% RH): about 2 times
Weight gain ([2]; 25° C./80% RH): 0.13%
Grinding stability (in words) (Grinding stability; listed as crystalline form I): most of the crystalline form I transform to amorphous after grinding
Solubility (in words) ([5]; inventors' evaluation of repeated Form I): low solubility
Diameter [6]: 6.06 mm
Hardness [6]: 7.4 N
Thickness [6]: 2.12 mm
Tensile strength [6]: 0.37 MPa
Compressibility (in words) ([6]; listed as crystalline form I): poor compressibility
Flowability ([7]; class by compressibility index, ICH Q4B Annex 13): very poor
Average amount sticking to the punch [8]: 0.25 mg
Maximum amount sticking to the punch [8]: 0.30 mg

CC(C)c1cc(Oc2c(Cl)cc(-n3nc(C#N)c(=O)[nH]c3=O)cc2Cl)n[nH]c1=O [crystalline form F, reference compound]
Hygroscopicity (in words) ([2]; according to WO2020010068A1 and the inventors' experimental study, conditions not given): high hygroscopicity
